Experimental data: patent US6403628B1 (dated 2002)

| SMILES | melting point [°C] |
| --- | --- |
| CC(=O)c1nn(-c2c(Cl)cc(C(F)(F)F)cc2Cl)c(NSC(F)(F)F)c1[S+](C)[O-] (centres unmarked) | 67 to 102 |
| CSc1c(C(C)=O)nn(-c2c(Cl)cc(C(F)(F)F)cc2Cl)c1N | 113 |
| CCS(=O)(=O)CCNc1c([S+](C)[O-])c(C(C)=O)nn1-c1c(Cl)cc(C(F)(F)F)cc1Cl (centres unmarked) | 102 |

Now from value to compound:

| melting point [°C] | SMILES |
| --- | --- |
| 166 | CC(=O)c1nn(-c2c(Cl)cc(C(F)(F)F)cc2Cl)c(N)c1[S+](C)[O-] (centres unmarked) |
| 189 | CC[S+]([O-])c1c(C(C)=O)nn(-c2c(Cl)cc(C(F)(F)F)cc2Cl)c1N (centres unmarked) |
| 123 | CCNc1c([S+](C)[O-])c(C(C)=O)nn1-c1c(Cl)cc(C(F)(F)F)cc1Cl (centres unmarked) |
| 126 | CNc1c([S+](C)[O-])c(C(C)=O)nn1-c1c(Cl)cc(C(F)(F)F)cc1Cl (centres unmarked) |
| 153 | CC(=O)c1nn(-c2c(Cl)cc(C(F)(F)F)cc2Br)c(N)c1[S+](C)[O-] (centres unmarked) |
